Results as given in patent US20240254119A1 (THIRD HARMONIC BIO, INC., priority 2022, published 2024).

Assays:
Kinetic solubility assay = format: physicochemical; settings: kinetic solubility, 50 mM PB (pH 7.4), shaken 24 hours at RT
How it was run: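 Test compounds from 10 mM DMSO stock were diluted in 50 mM phosphate buffer, pH 7.4, and shaken for 24 h at RT. After PTFE filtration and centrifugation, filtrate concentration was quantified by UPLC-UV/HPLC-UV against a standard curve.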

CSF-1R = biological target: T1, CSF-1R (Homo sapiens, UniProt P07333); assay: Caliper biochemical assay, CSF-1R; settings: Table 6
T1 construct: purchased Invitrogen PV3249 (lot 662393N)
Experimental: (§1) Enzyme, substrate, and cofactors (ATP and Mn^2+) are combined in a well of a microtiter plate and incubated for 3 hours at 25° C. At the end of the incubation, the reaction is quenched by the addition of an EDTA-containing buffer. Substrate and product are separated electrophoretically using the microfluidic-based LabChip 3000 Drug Discovery System from Caliper Life Sciences* and quantitated by fluorescence intensity.
(§2) The substrate used in the CSF-1R and PDGFRα assay is FAM-[…]-CONH2 (FAM is carboxyfluorescein). Peptide should be >95% purity. The substrate for the KIT assay is FAM-[…]-NH2.
(§3) • 1. To a well of a 384-well plate add 5 μL of 2× enzyme buffer (or control) • 2. Add 100 nL of 100× compound. • 3. Add 5 μL of 2× substrate buffer. • 4. Incubate plate at 25° C. for 3 hours. • 5. Add 10 uL of […]. • 6. Read plate LabChip 3000 Drug Discovery System
(§4) • 3 hours at 25° C. where 100% Inhibitor: No enzyme.

PDGFRα = biological target: T2, PDGFRα (Homo sapiens, UniProt P16234); assay: Caliper biochemical assay, PDGFRα; settings: Table 6
T2 construct: purchased Millipore 14-467 (lot 26321_ACTI)
Experimental: as §1, §2, §3, §4

wtKIT [1] = biological target: T3, wtKIT (Homo sapiens, UniProt P10721); assay: Caliper biochemical assay, wtKIT; settings: Table 6, read-out: KIT Biochemical IC50 avg
T3 construct: 1888289AM in the reaction mixtures
How it was run: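 Enzyme (5.0 nM wtKIT), 1 μM FAM-labelled peptide, 400 μM ATP and 10 mM MnCl2 in HEPES pH 7.5 with 1% DMSO, incubated 3 h at 25° C. EDTA quench; substrate and phosphoproduct separated by microfluidic electrophoresis and quantified by fluorescence.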

wtKIT [2] = biological target: T3, wtKIT; assay: HTRF biochemical assay, wtKIT (phosphorylation of a peptide substrate); settings: Table 4
How it was run: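 wtKIT (5.0 nM) phosphorylating 1 µM FAM-labelled peptide with 400 µM ATP and 10 mM MnCl2 in 100 mM HEPES pH 7.5, 1% DMSO, 3 h at 25 °C. EDTA quench; phosphopeptide detected with anti-phosphotyrosine antibody by HTRF. Enzyme titrated for 10-20% substrate conversion.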

[3] = biological target: T4, BCRP (BCRP-MDCKII monolayer) (Homo sapiens, UniProt Q9UNQ0); assay: MDCKII-BCRP bidirectional transport assay; format: in vitro ADME; settings: for MDCK-BCRP: Papp A-B: apical to basolateral
T4 construct: host or cells: MDCKII (canine kidney) cells
T4 sequence (Q9UNQ0 1-655): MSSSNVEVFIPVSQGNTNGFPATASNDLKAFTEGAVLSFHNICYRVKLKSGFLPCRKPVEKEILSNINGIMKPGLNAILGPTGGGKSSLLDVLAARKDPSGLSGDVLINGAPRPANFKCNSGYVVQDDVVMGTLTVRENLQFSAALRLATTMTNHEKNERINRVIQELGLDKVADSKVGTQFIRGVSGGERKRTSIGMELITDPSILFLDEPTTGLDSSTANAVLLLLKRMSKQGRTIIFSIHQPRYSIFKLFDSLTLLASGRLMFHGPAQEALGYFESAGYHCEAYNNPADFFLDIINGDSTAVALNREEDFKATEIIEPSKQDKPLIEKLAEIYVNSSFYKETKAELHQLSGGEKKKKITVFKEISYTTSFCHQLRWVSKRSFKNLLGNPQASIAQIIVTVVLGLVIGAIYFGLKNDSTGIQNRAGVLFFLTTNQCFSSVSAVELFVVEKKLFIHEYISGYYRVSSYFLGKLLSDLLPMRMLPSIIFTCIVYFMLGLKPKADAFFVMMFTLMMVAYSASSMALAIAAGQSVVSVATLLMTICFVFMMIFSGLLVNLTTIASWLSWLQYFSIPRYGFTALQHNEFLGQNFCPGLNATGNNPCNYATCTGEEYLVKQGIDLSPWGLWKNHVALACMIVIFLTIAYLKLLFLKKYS
How it was run: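 Bidirectional A→B and B→A transport across PreadyPort BCRP-MDCKII monolayers (days 12–15) was run in duplicate for 120 min at 37° C, 5% CO2 after a 15 min preincubation. Compound levels were measured by LC-MS/MS. Papp and recovery were calculated, with efflux ratio indicating transporter engagement.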

T3 sequence (P10721 26-976): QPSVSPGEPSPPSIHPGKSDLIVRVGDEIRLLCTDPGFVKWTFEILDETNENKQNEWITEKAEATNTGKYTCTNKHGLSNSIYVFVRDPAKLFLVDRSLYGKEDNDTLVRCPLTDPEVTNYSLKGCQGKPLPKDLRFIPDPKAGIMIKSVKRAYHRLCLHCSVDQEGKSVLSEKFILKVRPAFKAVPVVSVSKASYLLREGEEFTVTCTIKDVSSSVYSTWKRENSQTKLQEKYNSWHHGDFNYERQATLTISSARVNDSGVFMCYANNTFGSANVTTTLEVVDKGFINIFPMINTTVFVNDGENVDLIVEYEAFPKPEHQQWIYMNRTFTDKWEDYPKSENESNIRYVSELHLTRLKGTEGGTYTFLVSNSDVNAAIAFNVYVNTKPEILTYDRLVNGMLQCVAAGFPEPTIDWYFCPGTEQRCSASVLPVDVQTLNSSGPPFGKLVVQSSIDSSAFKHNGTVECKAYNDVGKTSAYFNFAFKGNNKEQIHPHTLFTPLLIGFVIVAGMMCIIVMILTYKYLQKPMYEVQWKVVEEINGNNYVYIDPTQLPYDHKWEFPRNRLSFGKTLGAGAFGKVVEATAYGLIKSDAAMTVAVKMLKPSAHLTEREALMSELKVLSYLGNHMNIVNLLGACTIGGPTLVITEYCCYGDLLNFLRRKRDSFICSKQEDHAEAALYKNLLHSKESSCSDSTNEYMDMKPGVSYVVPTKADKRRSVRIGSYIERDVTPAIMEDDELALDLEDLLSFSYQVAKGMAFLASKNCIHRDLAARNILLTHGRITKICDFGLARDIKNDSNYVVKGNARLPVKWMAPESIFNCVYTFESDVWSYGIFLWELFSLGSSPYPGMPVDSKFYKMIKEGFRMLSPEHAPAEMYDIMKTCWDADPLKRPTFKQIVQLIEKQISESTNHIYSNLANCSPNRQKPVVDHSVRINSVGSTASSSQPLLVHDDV
T2 sequence (P16234 24-1089): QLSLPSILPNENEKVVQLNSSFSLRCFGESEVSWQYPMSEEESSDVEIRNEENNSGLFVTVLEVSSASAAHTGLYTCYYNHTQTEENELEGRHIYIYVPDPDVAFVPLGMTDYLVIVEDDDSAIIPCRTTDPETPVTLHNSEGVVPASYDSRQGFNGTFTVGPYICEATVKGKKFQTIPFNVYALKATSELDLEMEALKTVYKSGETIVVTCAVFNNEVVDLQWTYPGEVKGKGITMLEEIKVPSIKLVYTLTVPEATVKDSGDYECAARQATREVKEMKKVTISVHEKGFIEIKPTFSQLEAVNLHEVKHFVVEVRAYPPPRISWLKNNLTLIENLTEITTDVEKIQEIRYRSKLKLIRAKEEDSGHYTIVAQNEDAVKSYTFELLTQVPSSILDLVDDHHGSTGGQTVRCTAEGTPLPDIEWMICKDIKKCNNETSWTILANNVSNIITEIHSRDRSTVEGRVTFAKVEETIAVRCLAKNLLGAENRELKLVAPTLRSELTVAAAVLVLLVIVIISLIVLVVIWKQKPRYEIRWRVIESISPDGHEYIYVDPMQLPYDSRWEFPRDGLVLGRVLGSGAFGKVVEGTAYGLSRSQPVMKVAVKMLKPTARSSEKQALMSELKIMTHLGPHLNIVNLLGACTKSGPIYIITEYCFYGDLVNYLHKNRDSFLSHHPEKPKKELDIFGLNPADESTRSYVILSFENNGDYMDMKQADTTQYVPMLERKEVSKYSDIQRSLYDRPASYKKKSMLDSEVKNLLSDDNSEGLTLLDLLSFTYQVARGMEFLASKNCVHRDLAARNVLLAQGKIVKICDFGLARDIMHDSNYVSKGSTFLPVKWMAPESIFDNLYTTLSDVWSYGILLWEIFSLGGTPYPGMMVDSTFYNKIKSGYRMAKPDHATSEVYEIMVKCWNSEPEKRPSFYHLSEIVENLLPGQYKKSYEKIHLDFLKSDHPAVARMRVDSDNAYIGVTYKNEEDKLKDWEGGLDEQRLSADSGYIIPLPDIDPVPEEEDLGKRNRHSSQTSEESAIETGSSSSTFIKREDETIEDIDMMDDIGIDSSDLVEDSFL
T1 sequence (P07333 20-972): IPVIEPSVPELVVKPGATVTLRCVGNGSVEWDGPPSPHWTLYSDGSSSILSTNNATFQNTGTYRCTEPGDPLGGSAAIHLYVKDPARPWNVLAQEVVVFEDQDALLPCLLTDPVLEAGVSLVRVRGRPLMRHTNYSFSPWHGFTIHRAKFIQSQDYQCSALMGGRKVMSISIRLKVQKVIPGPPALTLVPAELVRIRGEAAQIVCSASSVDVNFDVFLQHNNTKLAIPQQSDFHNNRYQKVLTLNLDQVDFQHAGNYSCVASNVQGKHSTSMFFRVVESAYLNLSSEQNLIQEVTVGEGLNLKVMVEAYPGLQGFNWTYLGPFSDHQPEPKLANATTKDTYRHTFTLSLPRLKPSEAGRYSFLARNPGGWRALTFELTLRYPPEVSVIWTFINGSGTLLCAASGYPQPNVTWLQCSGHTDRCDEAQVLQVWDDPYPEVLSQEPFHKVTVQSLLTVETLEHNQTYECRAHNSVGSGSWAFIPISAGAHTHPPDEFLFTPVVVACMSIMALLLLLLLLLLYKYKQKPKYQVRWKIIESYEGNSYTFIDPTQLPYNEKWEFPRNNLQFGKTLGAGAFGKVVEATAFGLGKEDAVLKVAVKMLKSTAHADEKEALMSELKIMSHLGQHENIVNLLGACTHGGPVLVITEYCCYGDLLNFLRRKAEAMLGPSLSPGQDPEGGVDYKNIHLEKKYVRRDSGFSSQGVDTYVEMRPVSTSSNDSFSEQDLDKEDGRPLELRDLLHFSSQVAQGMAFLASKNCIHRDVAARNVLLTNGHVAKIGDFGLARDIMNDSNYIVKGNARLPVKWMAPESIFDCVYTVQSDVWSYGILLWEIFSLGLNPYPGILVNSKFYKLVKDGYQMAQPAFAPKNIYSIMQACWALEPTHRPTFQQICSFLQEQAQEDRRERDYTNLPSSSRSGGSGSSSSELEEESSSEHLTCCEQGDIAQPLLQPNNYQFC

| SMILES | Solubility (μM) (Kinetic solubility assay) | IC50 (CSF-1R) [nM] | IC50 (PDGFRα) [nM] | IC50 (wtKIT [1]) [nM] | IC50 (wtKIT [2]) [nM] | MDCK-BCRP: Efflux Ratio [3] | MDCK-BCRP: Papp A-B [3] |
| --- | --- | --- | --- | --- | --- | --- | --- |
| Cc1ccc(-c2noc([C@H]3C[C@@H]3F)n2)cc1NC(=O)c1cnc2cc(N3CCCCC3)ccn12 [Compound I-305] | **** (a solubility less than or equal to 2 μM) | ≤ 50 | 50 to 500 | ≤ 50 |  |  |  |
| Cc1nc(-c2ccc(C)c(NC(=O)c3cnc4cc(COCC(F)(F)F)ccn34)c2)no1 [Compound I-133] | **** (a solubility less than or equal to 2 μM) | 500 to 5000 | 5000 to 30000 | ≤ 50 |  |  |  |
| Cc1nc(-c2ccc(C)c(NC(=O)c3cnc4ccc(NCCO)cn34)c2)no1 [Compound I-176] | ** (a solubility greater than 10 μM and less than or equal to 50 μM) | ≤ 50 | 50 to 500 | ≤ 50 |  |  |  |
| Cc1ccc(-c2noc(C3CCN3CCOC(F)(F)F)n2)cc1NC(=O)c1cnc2ccccn12 (racemic) [Compound I-168] | ** (a solubility greater than 10 μM and less than or equal to 50 μM) | 50 to 500 | 500 to 5000 | ≤ 50 |  |  |  |
| Cc1ccc(-c2noc(C3CCN3S(C)(=O)=O)n2)cc1NC(=O)c1cnc2ccccn12 (racemic) [Compound I-356] | ** (a solubility greater than 10 μM and less than or equal to 50 μM) | 50 to 500 | 500 to 5000 | ≤ 50 |  |  |  |
| COC(=O)N1CC(c2nc(-c3ccc(C)c(NC(=O)c4cnc5ccc(OC[C@H](C)O)cn45)c3)no2)C1 [Compound I-246] | **** (a solubility less than or equal to 2 μM) |  |  | ≤ 50 | 50 to 500 | 16.9 | 1.81 10^−6 cm/s |
| Cc1ccc(-c2noc([C@@H]3CCN3C3CC3)n2)cc1NC(=O)c1cnc2ccccn12 (racemic) [Compound I-177] | **** (a solubility less than or equal to 2 μM) | 50 to 500 | 50 to 500 | ≤ 50 |  |  |  |
| Cc1ccc(-c2noc([C@@H]3CCN3CC(F)(F)F)n2)cc1NC(=O)c1cnc2ccccn12 (racemic) [Compound I-178] | **** (a solubility less than or equal to 2 μM) | ≤ 50 | 50 to 500 | ≤ 50 |  |  |  |
| Cc1ccc(-c2noc([C@H]3CCN3C3CCC3)n2)cc1NC(=O)c1cnc2ccccn12 [Compound I-193] | **** (a solubility less than or equal to 2 μM) | ≤ 50 | 50 to 500 | ≤ 50 |  |  |  |
| Cc1ccc(-c2noc(C3CC(S(=O)(=O)N(C)C)C3)n2)cc1NC(=O)c1cnc2ccccn12 (centres unmarked) [Compound I-211] | *** (a solubility greater than 2 μM and less than or equal to 10 μM) |  |  | ≤ 50 | 50 to 500 | 14.1 | 1.91 10^−6 cm/s |
| Cc1ccc(-c2noc(C3CCN3S(C)(=O)=O)n2)cc1NC(=O)c1cnc2ccccn12 (centres unmarked) [Compound I-331] | ** (a solubility greater than 10 μM and less than or equal to 50 μM) | ≤ 50 | 50 to 500 | ≤ 50 |  |  |  |
| Cc1ccc(-c2noc(CC(O)C(F)(F)F)n2)cc1NC(=O)c1cnc2ccccn12 (racemic) [Compound I-183] | **** (a solubility less than or equal to 2 μM) | 50 to 500 | 5000 to 30000 | 50 to 500 |  |  |  |
| COCCN1CC[C@H]1c1nc(-c2ccc(C)c(NC(=O)c3cnc4ccccn34)c2)no1 (racemic) [Compound I-179] | * (a solubility greater than 50 μM) | 500 to 5000 | 5000 to 30000 | 50 to 500 |  |  |  |
| Cc1ccc(-c2noc([C@H]3C[C@@H]3F)n2)cc1NC(=O)c1cnc2ccc(N3CCC3)cn12 [Compound I-291] | *** (a solubility greater than 2 μM and less than or equal to 10 μM) | ≤ 50 | 50 to 500 | ≤ 50 |  |  |  |
| COC(=O)N1CC(c2nc(-c3ccc(C)c(NC(=O)c4cnc5cc(C(F)F)ccn45)c3)no2)C1 [Compound I-135] | **** (a solubility less than or equal to 2 μM) | 50 to 500 | 5000 to 30000 | ≤ 50 |  |  |  |
| Cc1ccc(-c2noc([C@H](C)NS(=O)(=O)c3cnn(C)c3)n2)cc1NC(=O)c1cnc2ccccn12 (racemic) [Compound I-181] | * (a solubility greater than 50 μM) | ≤ 50 | 500 to 5000 | ≤ 50 |  |  |  |
| O=C(Nc1cc(-c2noc([C@H]3CC(F)(F)CN3)n2)ccc1Cl)c1cnc2ccccn12 [Compound I-192] | **** (a solubility less than or equal to 2 μM) | 50 to 500 | 500 to 5000 | ≤ 50 |  |  |  |
| Cc1ccc(-c2noc(C34CCC(CC3)CC4)n2)cc1NC(=O)c1cnc2ccccn12 [Compound I-311] | **** (a solubility less than or equal to 2 μM) | ≤ 50 | ≤ 50 | 50 to 500 |  |  |  |
| Cc1ccc(-c2noc(C3CCCCN3S(C)(=O)=O)n2)cc1NC(=O)c1cnc2ccccn12 (racemic) [Compound I-174] | *** (a solubility greater than 2 μM and less than or equal to 10 μM) | ≤ 50 | 50 to 500 | 50 to 500 |  |  |  |
| Cc1ccc(-c2noc([C@H]3CCN3S(=O)(=O)C3CCOCC3)n2)cc1NC(=O)c1cnc2ccccn12 [Compound I-196] | ** (a solubility greater than 10 μM and less than or equal to 50 μM) | ≤ 50 | 50 to 500 | ≤ 50 |  |  |  |
| Cc1ccc(-c2noc(C3CCN(C(=O)OC(C)(C)C)C3)n2)cc1NC(=O)c1cnc2ccccn12 (racemic) [Compound I-399] | *** (a solubility greater than 2 μM and less than or equal to 10 μM) |  |  | 50 to 500 |  | 2.78 | 6.48 10^−6 cm/s |
